Results taken from PubChem BioAssay AID220 (DTP/NCI, 2004).
Values joined by “and” are separate entries in the source; they are usually repeats but may differ in a detail not shown here. Identical values can stand only once. Results filed as inconclusive are left out.

Tested on: CD8F1 mice, subcutaneous mammary adenocarcinoma, T/C%
Test: NCI In Vivo Anticancer Drug Screen. Data for tumor model Mammary Adenocarcinoma CD8F1 (subcutaneous) in CD8F1
Conditions: higher = larger tumour
Method in brief: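 Mice carrying transplanted tumors received test compound, and survival or tumor size was recorded. Each value is the treated-group measurement divided by the corresponding measurement in vehicle-dosed controls.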

[1] = endpoint: median tumor weight change, dose: 250.0 mg/kg/injection, schedule: Q01DX001 (ip), vehicle: saline
[2] = endpoint: median tumor weight change, dose: 1000.0 mg/kg/injection, schedule: Q01DX001 (ip), vehicle: saline
[3] = endpoint: median tumor weight change, dose: 2000.0 mg/kg/injection, schedule: Q01DX001 (ip), vehicle: saline

For `ClCC[N+]12CC[N+](CCCl)(CC1)C2`, the T/C (endpoint: mean tumor weight, dose: 12.5 mg/kg/injection, schedule: Q07DX006 (ip), vehicle: water) was 16 % of control, the T/C (endpoint: mean tumor weight, dose: 25.0 mg/kg/injection, schedule: Q07DX006 (ip), vehicle: water) was 85 % of control and the T/C (endpoint: mean tumor weight, dose: 50.0 mg/kg/injection, schedule: Q07DX006 (ip), vehicle: water) was 72 % of control. For the same compound, the T/C (endpoint: mean tumor weight, dose: 100.0 mg/kg/injection, schedule: Q07DX006 (ip), vehicle: water) was 18 % of control, the T/C (endpoint: mean tumor weight, dose: 200.0 mg/kg/injection, schedule: Q07DX006 (ip), vehicle: water) was 3 % of control and the T/C (endpoint: median tumor weight (est.), dose: 12.5 mg/kg/injection, schedule: Q07DX005 (ip), vehicle: water) was 70 % of control. For the same compound, the T/C (endpoint: median tumor weight (est.), dose: 25.0 mg/kg/injection, schedule: Q07DX005 (ip), vehicle: water) was 54 % of control, the T/C (endpoint: median tumor weight (est.), dose: 50.0 mg/kg/injection, schedule: Q07DX005 (ip), vehicle: saline) was 68 % of control and 50 % of control and the T/C (endpoint: median tumor weight (est.), dose: 50.0 mg/kg/injection, schedule: Q07DX005 (ip), vehicle: water) was 49 % of control. For the same compound, the T/C (endpoint: median tumor weight (est.), dose: 100.0 mg/kg/injection, schedule: Q07DX005 (ip), vehicle: water) was 32 % of control, the T/C (endpoint: median tumor weight (est.), dose: 200.0 mg/kg/injection, schedule: Q07DX005 (ip), vehicle: saline) was 20 % of control and the T/C (endpoint: median tumor weight (est.), dose: 400.0 mg/kg/injection, schedule: Q07DX005 (ip), vehicle: saline) was 6 % of control.

`CCCCCCCCCCCCCC#CC(=O)O` was tested, and the T/C (endpoint: median tumor weight change, dose: 62.5 mg/kg/injection, schedule: Q01DX001 (ip), vehicle: saline with Tween-80) was 75 % of control and 95 % of control, the T/C (endpoint: median tumor weight change, dose: 125.0 mg/kg/injection, schedule: Q01DX001 (ip), vehicle: saline with Tween-80) was 68 % of control and 81 % of control and the T/C (endpoint: median tumor weight change, dose: 250.0 mg/kg/injection, schedule: Q01DX001 (ip), vehicle: saline with Tween-80) was 72 % of control. The T/C (endpoint: median tumor weight change, dose: 500.0 mg/kg/injection, schedule: Q01DX001 (ip), vehicle: saline with Tween-80) was 78 % of control.

With `COc1cc2c(ccc3c4cc(OC)c(OC)cc4c[n+](C)c23)cc1O` the T/C [1] was 190 % of control, the T/C [2] was 89 % of control and the T/C [3] was 121 % of control.

In the case of `CCCCCCCC(=O)N/N=C(\CO)[C@]1(O)Cc2c(O)c3c(c(O)c2[C@@H](OC2CC(N)C(O)C(C)O2)C1)C(=O)c1c(OC)cccc1C3=O` (stereo not given in full), the T/C (endpoint: median tumor weight (est.), dose: 1.5 mg/kg/injection, schedule: Q07DX005 (ip), vehicle: saline) is reported as 76 % of control, the T/C (endpoint: median tumor weight (est.), dose: 3.0 mg/kg/injection, schedule: Q07DX005 (ip), vehicle: saline) is reported as 110 % of control and the T/C (endpoint: median tumor weight (est.), dose: 6.0 mg/kg/injection, schedule: Q07DX005 (ip), vehicle: saline) is reported as 37 % of control. The T/C (endpoint: median tumor weight (est.), dose: 12.0 mg/kg/injection, schedule: Q07DX005 (ip), vehicle: saline) was 4 % of control.

In the case of `COc1cccc2c1C(=O)c1c(O)c3c(c(O)c1C2=O)C[C@@](O)(C(=O)COC(=O)c1cccnc1)C[C@@H]3OC1CC(N)C(O)C(C)O1` (stereo not given in full), the T/C (endpoint: mean tumor weight, dose: 0.5 mg/kg/injection, schedule: Q07DX006 (ip), vehicle: saline) is reported as 114 % of control, the T/C (endpoint: mean tumor weight, dose: 1.0 mg/kg/injection, schedule: Q07DX006 (ip), vehicle: saline) is reported as 53 % of control and the T/C (endpoint: mean tumor weight, dose: 2.0 mg/kg/injection, schedule: Q07DX006 (ip), vehicle: saline) is reported as 25 % of control. The T/C (endpoint: median tumor weight (est.), dose: 0.5 mg/kg/injection, schedule: Q07DX005 (ip), vehicle: saline) was 121 % of control, the T/C (endpoint: median tumor weight (est.), dose: 1.0 mg/kg/injection, schedule: Q07DX005 (ip), vehicle: saline) was 92 % of control and the T/C (endpoint: median tumor weight (est.), dose: 2.0 mg/kg/injection, schedule: Q07DX005 (ip), vehicle: saline) was 72 % of control and 75 % of control. For the same compound, the T/C (endpoint: median tumor weight (est.), dose: 4.0 mg/kg/injection, schedule: Q07DX005 (ip), vehicle: saline) was 90 % of control.

In the case of `COC1C(O)CC(OC2CC(OC3CC(O[C@@H]4C(=O)c5c(cc6cc(OC7CC(OC8CC(O)C(O)C(C)O8)C(O)C(C)O7)c(C)c(O)c6c5O)C[C@H]4[C@H](OC)C(=O)[C@@H](O)[C@@H](C)O)OC(C)C3O)OC(C)C2O)OC1C` (stereo not given in full), the T/C (endpoint: median tumor weight (est.), dose: 0.18 mg/kg/injection, schedule: Q07DX005 (ip), vehicle: saline) is reported as 88 % of control and the T/C (endpoint: median tumor weight (est.), dose: 0.75 mg/kg/injection, schedule: Q07DX005 (ip), vehicle: saline) is reported as 24 % of control and 42 % of control.

With `c1ccc2c(c1)[As]=c1ccccc1=[As]2` (stereo not given) the T/C (endpoint: median tumor weight change, dose: 60.0 mg/kg/injection, schedule: Q01DX001 (ip), vehicle: saline with Tween-80) was 159 % of control, the T/C (endpoint: median tumor weight change, dose: 120.0 mg/kg/injection, schedule: Q01DX001 (ip), vehicle: saline with Tween-80) was 158 % of control and the T/C (endpoint: median tumor weight change, dose: 240.0 mg/kg/injection, schedule: Q01DX001 (ip), vehicle: saline with Tween-80) was 31 % of control.

With `CCCCCC[C@@H](O)C/C=C\CCCCCCCC(=O)OCCO` the T/C (endpoint: median tumor weight change, dose: 125.0 mg/kg/injection, schedule: Q01DX001 (ip), vehicle: saline) was 96 % of control, the T/C [1] was 91 % of control and the T/C (endpoint: median tumor weight change, dose: 500.0 mg/kg/injection, schedule: Q01DX001 (ip), vehicle: saline) was 98 % of control. The T/C [2] was 103 % of control and the T/C [3] was 95 % of control.

For `C/C=C1\C[C@@H]2C(OC)Nc3cc(O)c(OC)cc3C(=O)N2C1` (stereo not given in full), the T/C (endpoint: median tumor weight change, dose: 0.06 mg/kg/injection, schedule: Q01DX001 (ip), vehicle: saline) was 105 % of control, the T/C (endpoint: median tumor weight change, dose: 0.12 mg/kg/injection, schedule: Q01DX001 (ip), vehicle: saline) was 96 % of control and the T/C (endpoint: median tumor weight change, dose: 0.25 mg/kg/injection, schedule: Q01DX001 (ip), vehicle: saline) was 105 % of control. The T/C (endpoint: median tumor weight change, dose: 0.31 mg/kg/injection, schedule: Q01DX001 (ip), vehicle: suspension in saline) was 76 % of control, the T/C (endpoint: median tumor weight change, dose: 0.5 mg/kg/injection, schedule: Q01DX001 (ip), vehicle: saline) was 90 % of control and the T/C (endpoint: median tumor weight change, dose: 0.62 mg/kg/injection, schedule: Q01DX001 (ip), vehicle: suspension in saline) was 53 % of control. The T/C (endpoint: median tumor weight change, dose: 1.0 mg/kg/injection, schedule: Q01DX001 (ip), vehicle: saline) was 92 % of control, the T/C (endpoint: median tumor weight change, dose: 1.25 mg/kg/injection, schedule: Q01DX001 (ip), vehicle: suspension in saline) was 43 % of control and the T/C (endpoint: median tumor weight change, dose: 2.0 mg/kg/injection, schedule: Q01DX001 (ip), vehicle: saline) was 42 % of control.

`O=C(O)C1(C(=O)O)CCC1.[NH2-].[NH2-].[Pt+2]` was tested, and the T/C (endpoint: median tumor weight change, dose: 6.25 mg/kg/injection, schedule: Q01DX001 (ip), vehicle: dextrose) was 98 % of control, the T/C (endpoint: median tumor weight change, dose: 12.5 mg/kg/injection, schedule: Q01DX001 (ip), vehicle: dextrose) was 80 % of control and the T/C (endpoint: median tumor weight change, dose: 25.0 mg/kg/injection, schedule: Q01DX001 (ip), vehicle: dextrose) was 52 % of control.

In the case of `CN(C)/N=N/c1nc[nH]c1C(N)=O`, the T/C (endpoint: median tumor weight (est.), dose: 25.0 mg/kg/injection, schedule: Q07DX004 (ip), vehicle: saline) is reported as 102 % of control, the T/C (endpoint: median tumor weight (est.), dose: 25.0 mg/kg/injection, schedule: Q07DX005 (ip), vehicle: Klucel (hydroxypropylcellulose) (HPC)) is reported as 118 % of control and the T/C (endpoint: median tumor weight (est.), dose: 50.0 mg/kg/injection, schedule: Q07DX004 (ip), vehicle: saline) is reported as 111 % of control. The T/C (endpoint: median tumor weight (est.), dose: 50.0 mg/kg/injection, schedule: Q07DX005 (ip), vehicle: Klucel (hydroxypropylcellulose) (HPC)) was 81 % of control, the T/C (endpoint: median tumor weight (est.), dose: 100.0 mg/kg/injection, schedule: Q07DX004 (ip), vehicle: saline) was 90 % of control and the T/C (endpoint: median tumor weight (est.), dose: 100.0 mg/kg/injection, schedule: Q07DX005 (ip), vehicle: Klucel (hydroxypropylcellulose) (HPC)) was 46 % of control. For the same compound, the T/C (endpoint: median tumor weight (est.), dose: 200.0 mg/kg/injection, schedule: Q07DX004 (ip), vehicle: saline) was 62 % of control, the T/C (endpoint: median tumor weight (est.), dose: 200.0 mg/kg/injection, schedule: Q07DX005 (ip), vehicle: Klucel (hydroxypropylcellulose) (HPC)) was 26 % of control and the T/C (endpoint: median tumor weight (est.), dose: 400.0 mg/kg/injection, schedule: Q07DX004 (ip), vehicle: saline) was 13 % of control. The T/C (endpoint: median tumor weight (est.), dose: 400.0 mg/kg/injection, schedule: Q07DX005 (ip), vehicle: Klucel (hydroxypropylcellulose) (HPC)) was 16 % of control.

In the case of `CN1C(=O)NC(c2ccc(Cl)cc2)(c2ccc(Cl)cc2)C1=O`, the T/C (endpoint: median tumor weight change, dose: 125.0 mg/kg/injection, schedule: Q01DX001 (ip), vehicle: distilled water + Tween-80) is reported as 98 % of control, the T/C (endpoint: median tumor weight change, dose: 250.0 mg/kg/injection, schedule: Q01DX001 (ip), vehicle: distilled water + Tween-80) is reported as 80 % of control and the T/C (endpoint: median tumor weight change, dose: 500.0 mg/kg/injection, schedule: Q01DX001 (ip), vehicle: distilled water + Tween-80) is reported as 70 % of control. The T/C (endpoint: median tumor weight change, dose: 1000.0 mg/kg/injection, schedule: Q01DX001 (ip), vehicle: distilled water + Tween-80) was 40 % of control.

`CC(=O)NC(Cc1ccc(F)cc1)C(=O)O` (stereo not given) was tested, and the T/C (endpoint: median tumor weight (est.), dose: 50.0 mg/kg/injection, schedule: Q07DX005 (ip), vehicle: saline with Tween-80) was 117 % of control, the T/C (endpoint: median tumor weight (est.), dose: 100.0 mg/kg/injection, schedule: Q07DX005 (ip), vehicle: saline with Tween-80) was 80 % of control and the T/C (endpoint: median tumor weight (est.), dose: 200.0 mg/kg/injection, schedule: Q07DX005 (ip), vehicle: saline with Tween-80) was 68 % of control. For the same compound, the T/C (endpoint: median tumor weight (est.), dose: 800.0 mg/kg/injection, schedule: Q07DX005 (ip), vehicle: saline with Tween-80) was 153 % of control.
